Assays:
lambsquarters = experiment: Test C pre-/postemergence test; assay type: in vivo, Chenopodium album
In short: (§1)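 Seeds were planted and treated preemergence with test chemical in a non-phytotoxic solvent mixture containing surfactant. Postemergence applications of the same formulation went onto plants 2 to 18 cm tall (1- to 4-leaf stage). A dash marks no test result.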

crabgrass [1] = experiment: Test C pre-/postemergence test; assay type: in vivo, Digitaria sanguinalis
In short: as §1

Goosegrass = experiment: Test C pre-/postemergence test; assay type: in vivo, Eleusin indica
In short: as §1

barnyardgrass [2] = experiment: Test C flooded paddy test; assay type: in vivo, Echinochloa crus-galli; conditions: Flood, scale 0 to 100, 0 no effect, 100 complete control, 13 to 15 days
In short: (§2)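 In-water treatment: compound dosed into 3 cm flood over soil, water level unchanged throughout. Controls run alongside; visual assessment at day 13–15.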

kochia = experiment: Test C pre-/postemergence test; assay type: in vivo, Kochia scoparia
In short: as §1

bermudagrass = experiment: Test C pre-/postemergence test; assay type: in vivo, Cynodon dactylon
In short: as §1

cocklebur = experiment: Test C pre-/postemergence test; assay type: in vivo, Xanthium strumarium
In short: as §1

morningglory = experiment: Test A pre-/postemergence greenhouse test; assay type: in vivo, Ipomoea spp.; conditions: for Plant response rating, Morningglory: 0 to 100 scale where 0 is no effect and 100 is complete control; for Morningglory plant response rating: 0 to 100 scale
In short: (§3)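 Pots of loam–sand soil sown with the test species are sprayed preemergence on the soil surface; emerged seedlings (1–2 leaves, 2–10 cm) are sprayed postemergence at the same time. The vehicle is a non-phytotoxic solvent mixture with surfactant. Injury is scored visually after ~10 d in greenhouse.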

umbrella sedge = experiment: Test C flooded paddy test; assay type: in vivo, Cyperus difformis; conditions: Flood, 250 g ai/ha; scale 0 to 100, 0 no effect, 100 complete control; 13 to 15 days
In short: as §2

Surinam grass = experiment: Test C pre-/postemergence test; assay type: in vivo, Brachiaria decumbens
In short: as §1

pigweed = experiment: Test C pre-/postemergence test; assay type: in vivo, Amaranthus retroflexus
In short: as §1

Italian ryegrass = experiment: Test C pre-/postemergence test; assay type: in vivo, Lolium multiflorum
In short: as §1

soybean = experiment: Test C pre-/postemergence test; assay type: in vivo, Glycine max
In short: as §1

[3] = tested on: common (oilseed) sunflower; experiment: Test C pre-/postemergence test; assay type: in vivo, Helianthus annuus
In short: as §1

barnyardgrass [4] = experiment: Test A pre-/postemergence greenhouse test; assay type: in vivo, Echinochloa crus-galli; conditions: for Plant response rating, Barnyardgrass: 0 to 100 scale where 0 is no effect and 100 is complete control; for Barnyardgrass plant response rating: 0 to 100 scale
In short: as §3

giant foxtail = experiment: Test A pre-/postemergence greenhouse test; assay type: in vivo, Setaria faberi; conditions: for Plant response rating, Foxtail, Giant: 0 to 100 scale where 0 is no effect and 100 is complete control; for Foxtail, Giant plant response rating: 0 to 100 scale
In short: as §3

crabgrass [5] = experiment: Test A pre-/postemergence greenhouse test; assay type: in vivo, Digitaria sanguinalis; conditions: for Plant response rating, Crabgrass, Large: 0 to 100 scale where 0 is no effect and 100 is complete control; for Crabgrass, Large plant response rating: 0 to 100 scale
In short: as §3

[6] = 62 g ai/ha, Preemergence, scale 0 to 100
[7] = 125 g ai/ha, preemergence, scale 0 (no effect) to 100 (complete control)
[8] = Preemergence, 31 g ai/ha, scale 0 to 100 (0 no effect, 100 complete control)
[9] = preemergence, 250 g ai/ha, scale 0 (no effect) to 100 (complete control)
[10] = Postemergence, 500 g ai/ha, 0 is no effect, 100 is complete control
[11] = Preemergence, 125 g ai/ha, 0 no effect, 100 complete control

Cn1nc(C(F)(F)F)c(C(Cl)S(=O)(=O)c2cccc[n+]2[O-])c1OC(F)F (stereo not drawn) [Compound 51]
Lambsquarters plant response rating (lambsquarters; [6]): 100 | Lambsquarters plant response rating (lambsquarters; [7]): 100 | Plant response rating, Lambsquarters (lambsquarters; [8]): 100 | Lambsquarters plant response rating (lambsquarters; [9]): 100 | Crabgrass, Large plant response rating (crabgrass [1]; [6]): 100 | Crabgrass, Large plant response rating (crabgrass [1]; [7]): 100 | Plant response rating, Crabgrass, Large (crabgrass [1]; [8]): 65 | Crabgrass, Large plant response rating (crabgrass [1]; [9]): 100 | Goosegrass plant response rating (Goosegrass; [6]): 100 | Goosegrass plant response rating (Goosegrass; [7]): 100 | Plant response rating, Goosegrass (Goosegrass; [8]): 100 | Goosegrass plant response rating (Goosegrass; [9]): 100 | Plant response rating, Barnyardgrass (barnyardgrass [2]; 62 g ai/ha): 0 | Plant response rating, Barnyardgrass (barnyardgrass [2]; 250 g ai/ha): 50 | Kochia plant response rating (kochia; [6]): 100 | Kochia plant response rating (kochia; [7]): 100 | Plant response rating, Kochia (kochia; [8]): 65 | Kochia plant response rating (kochia; [9]): 100 | Bermudagrass plant response rating (bermudagrass; 62 g ai/ha, Preemergence, scale 0 to 100 (0 no effect, 100 complete control)): 100 | Bermudagrass plant response rating (bermudagrass; [7]): 100 | Plant response rating, Bermudagrass (bermudagrass; [8]): 90 | Bermudagrass plant response rating (bermudagrass; [9]): 100 | Cocklebur plant response rating (cocklebur; [6]): 0 | Cocklebur plant response rating (cocklebur; [7]): 0 | Plant response rating, Cocklebur (cocklebur; [8]): 0 | Cocklebur plant response rating (cocklebur; [9]): 0 | Plant response rating, Morningglory (morningglory; Postemergence, 125 g ai/ha): 60 | Morningglory plant response rating (morningglory; [10]): 60 | Morningglory plant response rating (morningglory; [11]): 50 | Plant response rating, Morningglory (morningglory; Preemergence, 500 g ai/ha): 70 | Plant response rating, Sedge, Umbrella (umbrella sedge): 95 | Surinam Grass plant response rating (Surinam grass; [6]): 10 | Surinam Grass plant response rating (Surinam grass; [7]): 98 | Plant response rating, Surinam Grass (Surinam grass; [8]): 10 | Surinam Grass plant response rating (Surinam grass; [9]): 100 | Pigweed plant response rating (pigweed; [6]): 100 | Pigweed plant response rating (pigweed; [7]): 100 | Plant response rating, Pigweed (pigweed; [8]): 85 | Pigweed plant response rating (pigweed; [9]): 100 | Ryegrass, Italian plant response rating (Italian ryegrass; [6]): 30 | Ryegrass, Italian plant response rating (Italian ryegrass; [7]): 80 | Plant response rating, Ryegrass, Italian (Italian ryegrass; [8]): 0 | Ryegrass, Italian plant response rating (Italian ryegrass; [9]): 80 | Soybean plant response rating (soybean; [6]): 0 | Soybean plant response rating (soybean; [7]): 0 | Plant response rating, Soybean (soybean; [8]): 0 | Soybean plant response rating (soybean; [9]): 0 | Sunflower plant response rating [3, 6]: 0 | Sunflower plant response rating [3, 7]: 0 | Plant response rating, Sunflower [3, 8]: 0 | Sunflower plant response rating [3, 9]: 0 | Plant response rating, Barnyardgrass (barnyardgrass [4]; Postemergence, 125 g ai/ha): 50 | Barnyardgrass plant response rating (barnyardgrass [4]; [10]): 80 | Barnyardgrass plant response rating (barnyardgrass [4]; [11]): 90 | Plant response rating, Barnyardgrass (barnyardgrass [4]; Preemergence, 500 g ai/ha): 100 | Plant response rating, Foxtail, Giant (giant foxtail; Postemergence, 125 g ai/ha): 50 | Foxtail, Giant plant response rating (giant foxtail; [10]): 90 | Foxtail, Giant plant response rating (giant foxtail; [11]): 100 | Plant response rating, Foxtail, Giant (giant foxtail; Preemergence, 500 g ai/ha): 100 | Plant response rating, Crabgrass, Large (crabgrass [5]; Postemergence, 125 g ai/ha): 60 | Crabgrass, Large plant response rating (crabgrass [5]; [10]): 90 | Crabgrass, Large plant response rating (crabgrass [5]; [11]): 70 | Plant response rating, Crabgrass, Large (crabgrass [5]; Preemergence, 500 g ai/ha): 90

Reference: patent publication US20100298141A1, “SUBSTITUTED PYRIDINE N-OXIDE HERBICIDES” (E. I. DU PONT DE NEMOURS AND COMPANY, priority 2007, published 2010)
